According to publication PMC5059921, “Chalepin: isolated from Ruta angustifolia L. Pers induces mitochondrial mediated apoptosis in lung carcinoma cells” (BMC Complementary and Alternative Medicine, 2016):
Where two headings read alike, the source gives them in different places.

Assays:
A549 cells [1] = experiment: Western blot analysis of apoptotic proteins; type: cell-based, human
A549 cell line = experiment: SRB in vitro cytotoxicity screening; type: cell-based, human
Experimental: (§1) The human cell lines A549 (lung cancer) and Ca Ski (cervical cancer) were cultured as monolayer in RPMI 1640 growth media whereas HCT-116 (colon cancer) and MRC5 (human normal lung fibroblasts) was cultured in McCoy’s 5A and EMEM medium, respectively. All cells were purchased from the […] (ATCC, USA). All the media were supplemented with 10 % v/v foetal bovine serum (FBS), 100 μg/mL penicillin/streptomycin, and 50 μg/mL amphotericin B. The cells were cultured in a 5 % CO2 incubator at 37 °C.
(§2) The monolayer cell culture was detached using accutase and the cell count was adjusted to 2.5 x10^5 -3.0 x10^5 cells/mL using medium containing feotal bovine serum. The cells were then plated into 96 wells with a cell density of 5000-7000 cells/well and then incubated for 24 h to allow adherence of cells to the base of well of the plates. The media was then removed and 200 μl of fresh media containing different concentration of various extracts or isolated compounds were added. Cisplatin was used as the positive control. The plates were incubated for 24, 48 and 72 h at 37 °C and 5 % CO2. The cytotoxicity of the extracts and isolated compounds were screened using the […] (SRB) assay. This assay was first described by Houghton in 2007 [8]. The incubation was halted by gentle addition of 50 μl ice cold 4 % trichloroacetic acid (TCA) to each well and the plates were incubated at 4 °C for 1 h. Then, the supernatant was discarded and the plates were washed with distilled water for 5 times and then air dried. SRB dye, 50 μl, (0.4 % w/v) was added into each well and the treated cells and control were incubated at room temperature for 30 min. The unbound dye was removed by rapid washing four times with 1 % acetic acid. The plates were then air dried and 100 μl of tris base (10 mM unbuffered, pH 10.5) was added and the plates were shaken at 500 rpm for 5 min to solublize the bound SRB stain. The plates were then read with an ELISA reader (Synergy H1 Hybrid) at an absorbance of 492 nm.

caspase 9 in A549 cells = experiment: Caspase-9 activity (CaspILLUME, flow cytometry); type: cell-based, human; conditions: 45 μg/ml
Experimental: (§3) Caspase activity assays were performed according to the instructions in the manual (CaspILLUME, Genetex). Cells were seeded at a density of 1×10^6 cells per culture dish. After being subjected to treatment for 48 and 72 h, the cells were detached with accutase, washed, and resuspended in PBS. Next, 300 μL of each sample was aliquoted into centrifuge tubes, after which 1 μL of fluorescent substrate (FITC-DEVD-FMK for caspase 3 and FITC-LEHD-FMK for caspase 9 activity) was added to each tube and incubated for 1 h at 37°C incubator. At the end of the incubation period, the cells were centrifuged at 3000 rpm for 5 min and the supernatant was removed. After that, the cells were resuspended in 0.5 mL wash buffer (provided in the kit) and centrifuged at 3000 rpm for 5 min. This step was repeated before performing the analysis with flow cytometer (Accuri C6) and a minimum of 10,000 events were acquired for each replicate.

caspase 3 in A549 cells = experiment: Caspase-3 activity (CaspILLUME, flow cytometry); type: cell-based, human; conditions: for active caspase 3, V1-R (apoptotic population): 45 ug/ml; for fold increase of caspase 3 activity vs untreated control: 45 μg/ml
Experimental: as §3

A549 cells [2] = experiment: Intracellular ROS measurement (DCFH-DA); type: cell-based, human; conditions: A549, 45 μg/ml, 6 h incubation
Experimental: The assay was conducted as described by Ling et al. with some minor modifications. The ROS measurement was done using the fluorescent probe 2’,7’-dichlorofluorescein diacetate (DCFH-DA) that enabled the monitoring of intracellular accumulation of ROS. The A549 cells were seeded into a 96 well plate with a density of 2×10^4 cells per well and allowed to attach overnight. Treatment with chalepin at various concentrations were done the next day and incubated for different time periods. At the end of the incubation period, the media was removed and 5 μM of DCFH-DA which is diluted in media was added to the cells and incubated for 40 min at 37 °C. The cells were then washed three times with clear media and the fluorescence intensity (excitation = 485 nm and emission = 530 nm) was measured using a microplate reader. The morphology of the cells were observed using a fluorescence microscope.

[3] = tested on: MRC5 (human normal lung fibroblasts); experiment: SRB in vitro cytotoxicity screening (toxicity to normal cells); type: cell-based; conditions: Homo sapiens, MRC5, isolated compounds, 72 h, read-out: IC50 in μg/ml (μM) (MRC5) 72 h (converted)
Experimental: as §1, §2

[4] = tested on: hepatitis C virus, hepatoma cell line (Huh7.5); set-up: method as in PMID 25454460; conditions: cited from earlier work
A549 cells [5] = experiment: Apoptosis detection by Annexin V-FITC/PI staining (flow cytometry); type: cell-based, human; conditions: incubation time not stated
Experimental: FITC annexin V apoptosis detection kit (BD) was used to detect apoptosis. Cells were seeded in tissue culture dishes (5000-7000 cells/dish) and allowed to adhere overnight. Next, the cells were treated with various concentrations of chalepin for 48 and 72 h. The cells were harvested, washed, and resuspended in 1x binding buffer according to the manual provided in the kit. In the next step, the cells were stained in the ratio of per 100,000 cells; staining of cells with 5 μL of FITC-annexin V and 5 μL of propidium iodide was done for 15 min. Then, 200 μL of 1× binding buffer was added to each sample. Unstained and single-stained untreated cells were also included as controls. A minimum number of 10,000 events was acquired for each replicate using Accuri C6 flow cytometer. A quadrant statistic was used to measure the population of viable, early apoptotic, late apoptotic and secondary necrotic cells. The determination betweent these different populations were obtained by estimating quantitatively the cells that were AnnexinV/PI stained.

[6] = A549, 36 μg/ml, 2,4,8,12 and 24 h

Structure (SMILES): C=CC(C)(C)c1cc2cc3c(cc2oc1=O)O[C@H](C(C)(C)O)C3 [Chalepin, chalepin]
- Procaspase 3 (A549 cells [1]; [6]): downregulation
- Procaspase 9 (A549 cells [1]; [6]): downregulation
- anti-apoptotic gene products Bcl-2, survivin, XIAP, Bcl-xl and cFLIP (A549 cells [1]; [6]): downregulate
- cleaved caspase 3 (A549 cells [1]; [6]): upregulation
- expression of Bax (A549 cells [1]; [6]): upregulation
- expression of cytochrome c (A549 cells [1]; [6]): upregulation
- expression of p53 (A549 cells [1]; [6]): upregulation
- quantity of PARP expressed (A549 cells [1]; [6]): decreased with time
- Bak (A549 cells [1]; A549, 36 μg/ml, time dependently): upregulated
- IC50 (A549 cell line; Homo sapiens, A549, 48 h, isolated compounds, 48 h, value in brackets, read-out: IC50 in μg/ml (μM) (A549) 48 h (converted)): 90.1 µM
- IC50 (A549 cell line; Homo sapiens, A549, 48 h, isolated compounds, 48 h, read-out: IC50 in μg/ml (μM) (A549) 48 h (converted)): 28.3 ± 1.06 µg/mL
- IC50 (A549 cell line; Homo sapiens, A549, 72 h, isolated compounds, 72 h, read-out: IC50 in μg/ml (μM) (A549) 72 h (converted)): 8.69 ± 2.43 µg/mL
- IC50 (A549 cell line; Homo sapiens, A549, 72 h, read-out: IC50 in μg/ml (μM) (A549) 72 h, isolated compounds, 72 h, value in brackets): 27.6 µM
- IC50 (A549 cell line; isolated compounds, 72 h, value in brackets, read-out: IC50 in μg/ml (μM) (A549) 72 h (converted)): 28 µM
- active caspase 9, V1-R (apoptotic population) (caspase 9 in A549 cells; A549, 48 h): 22.57 ± 0.21%
- active caspase 9, V1-R (apoptotic population) (caspase 9 in A549 cells; A549, 72 h): 33.5 ± 0.35%
- fold increase in activation of caspase 9 vs untreated control (caspase 9 in A549 cells; A549, 72 h): 8.44 fold
- active caspase 3, V1-R (apoptotic population) (caspase 3 in A549 cells; A549, 48 h): 26.40 ± 0.79%
- fold increase of caspase 3 activity vs untreated control (caspase 3 in A549 cells; A549, 48 h): 9.32 fold
- active caspase 3, V1-R (apoptotic population) (caspase 3 in A549 cells; A549, 72 h): 49.07 ± 0.63%
- fold increase of caspase 3 activity vs untreated control (caspase 3 in A549 cells; A549, 72 h): 8.71 fold
- ROS fold increase vs untreated control (A549 cells [2]): 62.24 fold
- IC50 ([3]; value in brackets): 74.5 µM
- IC50 [3]: 23.4 ± 0.6 µg/mL
- replication of hepatitis C virus [4]: stop the replication
- Annexin V positive cells (early and late apoptotic) (A549 cells [5]; A549, 9 μg/ml): 7.27 ± 0.16%
- Annexin V positive cells (early and late apoptotic) (A549 cells [5]; A549, 45 μg/ml): 20.6 ± 0.53%
